We go through seven molecules from patent US4859779A, “Dopamine-β-hydroxylase inhibitors” (SmithKline Beckman Corporation, priority 1989, dated 1989).

SMILES strings stand for the structures. Structures can show the parent of a compound that is named as a salt.

The target of one test is T1, DBH (Homo sapiens, UniProt P09172).
T1 sequence (P09172 1-617): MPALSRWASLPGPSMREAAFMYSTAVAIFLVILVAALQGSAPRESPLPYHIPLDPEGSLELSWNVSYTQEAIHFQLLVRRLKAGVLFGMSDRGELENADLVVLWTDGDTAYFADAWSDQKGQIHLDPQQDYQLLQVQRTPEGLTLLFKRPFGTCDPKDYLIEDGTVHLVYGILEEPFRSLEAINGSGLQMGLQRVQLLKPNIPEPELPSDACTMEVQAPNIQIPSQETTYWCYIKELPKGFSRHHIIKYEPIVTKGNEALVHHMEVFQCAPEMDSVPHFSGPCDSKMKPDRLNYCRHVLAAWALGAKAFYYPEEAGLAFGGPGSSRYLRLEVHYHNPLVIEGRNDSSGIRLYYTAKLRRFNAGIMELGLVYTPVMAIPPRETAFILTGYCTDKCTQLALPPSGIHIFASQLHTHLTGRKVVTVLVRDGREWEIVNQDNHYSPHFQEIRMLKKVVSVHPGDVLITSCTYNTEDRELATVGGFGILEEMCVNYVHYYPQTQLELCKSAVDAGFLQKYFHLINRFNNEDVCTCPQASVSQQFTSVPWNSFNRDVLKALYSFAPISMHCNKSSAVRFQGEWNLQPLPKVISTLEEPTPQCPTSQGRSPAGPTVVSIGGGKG
The conditions noted are these: literature reports; cited from earlier work.

For test [1] the following is noted: Ehrreich et al., 1976; cited from earlier work.
Test [2] deals with spontaneously hypertensive rats. Briefly: mean arterial blood pressure in spontaneously hypertensive rats (indwelling tail artery cannulae). The test is classed as in vivo, rat. The conditions noted are these: 50 mg/kg intraperitoneally. The procedure:
Further, spontaneously hypertensive rats were treated with a suspension or solution of N-(2-aminoethyl)-1-(3,5-difluorobenzyl)-2-mercaptoimidazole-5-carboxamide,formate at a dose of 50 mg/kg intraperitoneally, and mean arterial blood pressure was monitored for 260 minutes using indwelling cannulae in the tail arteries.

Turning to `O=C(O)c1ccc(CCC(Br)CBr)cn1` (stereo not drawn) [5-(3,4-dibromobutyl)picolinic acid], at DBH, the “DBH inhibition (in words)” value is “DBH inhibitors”.
For the molecule `O=C(O)c1ccc(CCCCCl)cn1` [5-(4-chlorobutyl) picolinic acid], at DBH, the “DBH inhibition (in words)” value is reported as “inhibit DBH”.
In the case of `CN(C)C(=S)SCc1ccc(C(=O)O)nc1` [5-(dimethyldithiocarbamoylmethyl)picolinic acid], the “DBH inhibition (in words)” value at DBH was “DBH inhibitors”.
For the molecule `NOCc1ccccc1` [Benzyloxyamine], the “DBH inhibition (in words)” value at DBH was “apparently act as competitive inhibitors”.
For `CCCCc1ccc(C(N)=O)nc1` [Bupicomide, 5-(n-butyl)picolinamine], on DBH, the “DBH inhibition (in words)” value was “DBH inhibitor”. In addition, the antihypertensive activity result in test [1] was “antihypertensive activity”.
With `NCCNC(=O)c1cnc(S)n1Cc1cc(F)cc(F)c1` [N-(2-Aminoethyl)-1-(3,5-difluorobenzyl)-2-mercaptoimidazole-5-carboxamide,formate], the “blood pressure reduction compared to vehicle-treated controls” value in test [2] (suspension or solution, mean arterial blood pressure, within 30 minutes following treatment) is “significant blood pressure reductions”. Also, the “time to significant blood pressure reduction” value in test [2] (versus vehicle-treated controls) was not above 30 min.
With `NNCc1ccccc1` [benzylhydrazine], the “DBH inhibition (in words)” value on DBH is given as “apparently act as competitive inhibitors”.
